Laboratory results reported in US3956274A, “New compound 6'-deoxy-'-substituted or unsubstituted amino-lividomycins and the production thereof” (Zaidan Hojin Biseibutsu Kagaku Kenkyu Kai, priority 1973, dated 1976).
In brackets after ≈: the same amount, converted by molar mass. Read-outs that look alike come from different tables or passages of the source.

Key:
[1] = system: kanamycin-resistant strains; conditions: in words; cited from earlier work
[2] = system: Bacillus subtilis NRRL B-558; assay: MIC, standard serial dilution method; type: cell-based; conditions: Bacillus subtilis, NRRLB558; B. subtilis NRRL B-558; nutrient agar, 37°C, 18 hours; read-out: Minimal inhibitory concentration
Protocol: (§1) The minimum inhibitory concentrations (mcg/ml) of 6'-amino-6'-deoxylividomycin B, 6'-deoxy-6'-methylaminolividomycin B and 6'-deoxy-6'-(2-hydroxyethylamino) lividomycin B against various microorganisms were determined according to a standard serial dilution method using nutrient agar incubation medium at 37°C, the estimation being effected after 18 hours incubation except for Mycobacterium smegmalis ATCC 607, in which the estimation being effected after 48 hours incubation. The minimum inhibitory concentrations (mcg/ml) of neomycin and lividomycin B were also determined in the same manner they also for comparison.

[3] = system: Pseudomonas aeruginosa A 3; assay: MIC, standard serial dilution method; type: cell-based; conditions: Pseudomonas aeruginosa, A3, 18 h, read-out: Minimal inhibitory concentration
Protocol: as §1

[4] = system: Escherichia coli K-12 LA 290 R 56; assay: MIC, standard serial dilution method; type: cell-based; conditions: Escherichia coli, 18 h, read-out: Minimal inhibitory concentration
Protocol: as §1

[5] = system: Mycobacterium smegmatis ATCC 607; assay: MIC, standard serial dilution method; type: cell-based; conditions: Mycolicibacterium smegmatis, ATCC607, nutrient agar, 37°C, 48 hours, read-out: Minimal inhibitory concentration
Protocol: as §1

Escherichia coli K-12 = assay: MIC, standard serial dilution method; type: cell-based; conditions: Escherichia coli, K12; E. coli K-12; nutrient agar, 37°C, 18 hours; read-out: Minimal inhibitory concentration
Protocol: as §1

[6] = system: Staphylococcus aureus FDA 209 P; assay: MIC, standard serial dilution method; type: cell-based; conditions: Staphylococcus aureus, FDA209; S. aureus FDA 209 P; nutrient agar, 37°C, 18 hours; read-out: Minimal inhibitory concentration
Protocol: as §1

[7] = system: Escherichia coli K-12 ML 1630; assay: MIC, standard serial dilution method; type: cell-based; conditions: Escherichia coli, K12ML1630; E. coli K-12 ML 1630; nutrient agar, 37°C, 18 hours; read-out: Minimal inhibitory concentration
Protocol: as §1

Sarcina lutea PCI 1001 = assay: MIC, standard serial dilution method; type: cell-based; conditions: Micrococcus luteus, PCI1001, nutrient agar, 37°C, 18 hours, read-out: Minimal inhibitory concentration
Protocol: as §1

[8] = system: Escherichia coli K-12 ML 1410; assay: MIC, standard serial dilution method; type: cell-based; conditions: Escherichia coli, K12ML1410, 18 h, read-out: Minimal inhibitory concentration
Protocol: as §1

Salmonella typhosa T-63 = assay: MIC, standard serial dilution method; type: cell-based; conditions: Salmonella enterica, TYPHOSA, 18 h, read-out: Minimal inhibitory concentration
Protocol: as §1

[9] = system: Klebsiella pneumoniae PCI 602; assay: MIC, standard serial dilution method; type: cell-based; conditions: Klebsiella pneumoniae, PCI602; K. pneumoniae PCI 602; nutrient agar, 37°C, 18 hours; read-out: Minimal inhibitory concentration
Protocol: as §1

[10] = system: Escherichia coli K-12 J 5 R 11-2; assay: MIC, standard serial dilution method; type: cell-based; conditions: Escherichia coli, K12J5R112; E. coli K-12 J 5 R 11-2; nutrient agar, 37°C, 18 hours; read-out: Minimal inhibitory concentration
Protocol: as §1

[11] = system: Klebsiella pneumoniae type 22 No. 3038; assay: MIC, standard serial dilution method; type: cell-based; conditions: Klebsiella pneumoniae, TYPE22NO.3038, 18 h, read-out: Minimal inhibitory concentration
Protocol: as §1

[12] = system: Escherichia coli K-12 ML 1410 R 81; assay: MIC, standard serial dilution method; type: cell-based; conditions: Escherichia coli, 18 h, read-out: Minimal inhibitory concentration
Protocol: as §1

[13] = system: Pseudomonas aeruginosa TI-13-1; assay: MIC, standard serial dilution method; type: cell-based; conditions: Pseudomonas aeruginosa, TI131; P. aeruginosa TI-13-1; nutrient agar, 37°C, 18 hours; read-out: Minimal inhibitory concentration
Protocol: as §1

Proteus rettgeri GN 466 = assay: MIC, standard serial dilution method; type: cell-based; conditions: Providencia rettgeri, read-out: Minimal inhibitory concentration
Protocol: as §1

Escherichia coli NIHJ = assay: MIC, standard serial dilution method; type: cell-based; conditions: Escherichia coli, 18 h, read-out: Minimal inhibitory concentration
Protocol: as §1

[14] = system: Escherichia coli K-12 LA 290 R 64; assay: MIC, standard serial dilution method; type: cell-based; conditions: Escherichia coli; E. coli K-12 LA 290 R 64; nutrient agar, 37°C, 18 hours; read-out: Minimal inhibitory concentration
Protocol: as §1

[15] = system: Pseudomonas aeruginosa 99; assay: MIC, standard serial dilution method; type: cell-based; conditions: Pseudomonas aeruginosa; P. aeruginosa 99; nutrient agar, 37°C, 18 hours; read-out: Minimal inhibitory concentration
Protocol: as §1

Proteus rettgeri GN 311 = assay: MIC, standard serial dilution method; type: cell-based; conditions: Providencia rettgeri, GN311, nutrient agar, 37°C, 18 hours, read-out: Minimal inhibitory concentration
Protocol: as §1

[16] = system: Escherichia coli K-12 R-5; assay: MIC, standard serial dilution method; type: cell-based; conditions: Escherichia coli, K12R5; E. coli K-12 R-5; nutrient agar, 37°C, 18 hours; read-out: Minimal inhibitory concentration
Protocol: as §1

[17] = system: Escherichia coli K-12 W 677; assay: MIC, standard serial dilution method; type: cell-based; conditions: Escherichia coli, read-out: Minimal inhibitory concentration
Protocol: as §1

[18] = system: Pseudomonas aeruginosa No.12; assay: MIC, standard serial dilution method; type: cell-based; conditions: Pseudomonas aeruginosa; P. aeruginosa No.12; nutrient agar, 37°C, 18 hours; read-out: Minimal inhibitory concentration
Protocol: as §1

[19] = system: Pseudomonas aeruginosa GN 315; assay: MIC, standard serial dilution method; type: cell-based; conditions: Pseudomonas aeruginosa, read-out: Minimal inhibitory concentration
Protocol: as §1
(§2) In the above table, the mark * denotes the strain is a drug-resistant
(§3) strain of patient-origin.

[20] = system: Escherichia coli K-12 ML 1629; assay: MIC, standard serial dilution method; type: cell-based; conditions: Escherichia coli, K12ML1629; E. coli K-12 ML 1629, drug-resistant strain of patient-origin; nutrient agar, 37°C, 18 hours; read-out: Minimal inhibitory concentration
Protocol: as §1, §2, §3

[21] = system: Escherichia coli K-12 LA 290 R 55; assay: MIC, standard serial dilution method; type: cell-based; conditions: Escherichia coli, 18 h, read-out: Minimal inhibitory concentration
Protocol: as §1, §2, §3

[22] = system: Escherichia coli K-12 JR 66/W 677; assay: MIC, standard serial dilution method; type: cell-based; conditions: Escherichia coli, 18 h, read-out: Minimal inhibitory concentration
Protocol: as §1, §2, §3

SMILES	MIC [2]	MIC [3]	MIC [4]	MIC [5]	MIC (Escherichia coli K-12)	MIC [6]	MIC [7]	MIC (Sarcina lutea PCI 1001)	MIC [8]	MIC (Salmonella typhosa T-63)	MIC [9]	MIC [10]	MIC [11]	MIC [12]	MIC [13]	MIC (Escherichia coli NIHJ)	MIC [14]	MIC [15]	MIC (Proteus rettgeri GN 311)	MIC [16]	further results
NC[C@@H]1O[C@H](O[C@H]2[C@@H](O)[C@H](O[C@@H]3[C@@H](O)[C@H](N)C[C@H](N)[C@H]3O[C@H]3O[C@H](CO)[C@@H](O)C[C@H]3N)O[C@@H]2CO)[C@H](N)[C@@H](O)[C@@H]1O [LVB, lividomycin B, reference compound]	< 0.2 µg/mL	6.25 µg/mL (≈ 10.4 µM)	3.12 µg/mL (≈ 5.2 µM)	0.39 µg/mL (≈ 0.65 µM)	1.56 µg/mL (≈ 2.6 µM)	1.56 µg/mL (≈ 2.6 µM)	> 100 µg/mL	1.56 µg/mL (≈ 2.6 µM)	6.25 µg/mL (≈ 10.4 µM)	0.78 µg/mL (≈ 1.3 µM)	1.56 µg/mL (≈ 2.6 µM)	> 100 µg/mL	6.25 µg/mL (≈ 10.4 µM)	> 100 µg/mL	> 100 µg/mL	3.12 µg/mL (≈ 5.2 µM)	3.12 µg/mL (≈ 5.2 µM)	100 µg/mL (≈ 167 µM)	1.56 µg/mL (≈ 2.6 µM)	1.56 µg/mL (≈ 2.6 µM)	activity against kanamycin-resistant strains [1]: active against the kanamycin-resistant bacteria; MIC (Proteus rettgeri GN 466; GN466, 18 h): 3.12 µg/mL (≈ 5.2 µM); MIC ([17]; K12W677, 18 h): 3.12 µg/mL (≈ 5.2 µM); MIC [18]: 25 µg/mL (≈ 41.7 µM); MIC ([19]; GN315, P. aeruginosa GN 315, drug-resistant strain of patient-origin, nutrient agar, 37°C, 18 hours): 50 µg/mL (≈ 83.4 µM); MIC [20]: > 100 µg/mL; MIC [21]: 3.12 µg/mL (≈ 5.2 µM); MIC [22]: 6.25 µg/mL (≈ 10.4 µM)
CNC[C@H]1O[C@H](O[C@H]2[C@H](O[C@@H]3O[C@H](CO)[C@@H](O[C@H]4O[C@@H](CN)[C@@H](O)[C@H](O)[C@H]4N)[C@H]3O)[C@@H](O)[C@H](N)C[C@@H]2N)[C@H](N)C[C@@H]1O [MALVB, 6'-deoxy-6'-methylaminolividomycin B]	< 0.2 µg/mL	3.12 µg/mL (≈ 5.09 µM)	1.56 µg/mL (≈ 2.55 µM)	< 0.2 µg/mL	0.78 µg/mL (≈ 1.27 µM)	< 0.2 µg/mL	> 100 µg/mL	6.25 µg/mL (≈ 10.2 µM)	3.12 µg/mL (≈ 5.09 µM)	0.78 µg/mL (≈ 1.27 µM)	0.78 µg/mL (≈ 1.27 µM)	100 µg/mL (≈ 163 µM)	1.56 µg/mL (≈ 2.55 µM)	> 100 µg/mL	> 100 µg/mL	3.12 µg/mL (≈ 5.09 µM)	0.78 µg/mL (≈ 1.27 µM)	25 µg/mL (≈ 40.8 µM)	25 µg/mL (≈ 40.8 µM)	1.56 µg/mL (≈ 2.55 µM)	MIC (Proteus rettgeri GN 466; GN466, Proteus rettgeri GN 466, nutrient agar, 37°C, 18 hours): 12.5 µg/mL (≈ 20.4 µM); MIC ([17]; K12W677, E. coli K-12 W 677, nutrient agar, 37°C, 18 hours): 0.78 µg/mL (≈ 1.27 µM); MIC [18]: 0.78 µg/mL (≈ 1.27 µM); MIC ([19]; GN315, 18 h): 3.12 µg/mL (≈ 5.09 µM); MIC [20]: > 100 µg/mL; MIC [21]: 1.56 µg/mL (≈ 2.55 µM); MIC [22]: 3.12 µg/mL (≈ 5.09 µM)
